For 3 molecules, viability, T/C and IC50 results are on record in PubChem BioAssay AID1963445 (Molecular Pharmacology Branch, DTP, NCI, 2024).

“And” between values parts separate entries of the source, which are not always exact repeats. Equal values may be shown once.

For the test, the system named is MCF7 complex spheroid growth, % test/control. In words: Anticancer human tumor MCF7 cell line growth inhibition [Asc].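 On all read-outs here: spheroids exposed to compounds for 7 days.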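 On viability, T/C: 100% = DMSO vehicle control wells.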 The settings on record: for viability, T/C: stronger effect = lower value. On the procedure: Multicellular complex tumor spheroid response to apoptosis pathway targeting inhibitors Alrizomadlin, Pelcitoclax, and Dasminapant in combination with a variety of drugs and investigational agents in selected tumor cell lines
The MDM2 inhibitor alrizomadlin, the Bcl-2/Bcl-xL inhibitor pelcitoclax, and the IAPs inhibitor dasminapant were evaluated both individually and in combination with standard of care and investigational anticancer small molecules within a complex spheroid model of solid tumors. . Complex spheroids include a stromal component modeled by human endothelial cells (HUVEC) and fibroblasts modeled by human mesenchymal stem cells (MSCs). The concentration ranges selected for each drug and investigational agent were based upon clinically achievable concentrations if the clinical Cmax of the agent was known.
Compounds. The drugs and investigational agents: alrizomadlin (APG-115; NSC831270), pelcitoclax (APG-1252; NSC835773), dasminapant (APG-1387;NSC834197), TAK-243 (NSC785004), copanlisib (NSC809693), olaparib (NSC753686), talazoparib (NSC767125), cobimetinib (NSC 768068), eltanexor (KPT-8602, NSC 794443), abemaciclib (NSC 768073), sotorasib (NSC818433), adagrasib (NSC 831453), MRTX-1133 (NSC 836407), Iadademestat (ORY1001, NSC 806812), and RMC-4630 (NSC839698), were obtained from the NCI Developmental Therapeutics Program Chemical Repository. The FDA-approved anticancer drug set is available from the Developmental Therapeutics Program at https://dtp.cancer.gov/organization/dscb/obtaining/available plates.htm. […] The stock solutions were prepared in dimethyl sulfoxide (DMSO, Sigma-Aldrich, St. Louis, MO, cat. D2650) at 800-fold the tested concentration and stored at -70 degrees C prior to their use. All drugs and investigational agents were tested over a range starting from a high concentration at or near the clinical Cmax and decreasing in half-log increments. If the clinical Cmax for an agent had not been determined, the highest concentration tested was 10 microM.
The patient-derived cancer (PDC) cell lines include five colon adenocarcinomas: 186277-243-T-J2-PDC, 616215-338-R-J1-PDC, 439559-082-T-J2-PDC, 463943-066-T-J2-PDC, and 519858-162-T-J1-PDC; three pancreatic carcinomas: 323965-272-R-J2-PDC, 521955-158-R6-J3-PDC, and 521955-158-R2-J5-PDC; two uterine sarcomas: 327498-152-R-J2-PDC and 993429-296-R-J1-PDC; two rhabdomyosarcomas: 755483-174-R-J1-PDC and 772245-204-R-J1-PDC; two soft tissue sarcomas: 126254-015-R-J1-PDC and 494315-158-R-J1-PDC; two malignant fibrous histiocytomas: 317291-083-R-J1-PDC and 596521-263-R-J1-PDC; two breast carcinomas: 171881-019-R-J1-PDC and 885512-296-R-J2-PDC; and one ovarian carcinoma: 6556581-035-R-J-PDC were obtained from the NCI PDMR, (https://pdmr.cancer.gov). The established cell lines HSSY-2 synovial sarcoma (RRID:CVCL 8719), SYO-1 synovial sarcoma (RRID:CVCL_7146), MPNST malignant peripheral neural sheath tumor were obtained from the Sloan Kettering Institute. The following established cell lines were purchased from the American Type Culture Collection (ATCC, Manassas, VA), Sor the received from the NCI repository:, PANC-1 pancreatic carcinoma (CRL-1469, RRID:CVCL_0480), OVCAR-5 ovarian carcinoma (RRID:CVCL_1628), OVCAR-8 ovarian carcinoma (RRID:CVCL_1629), , MCF-7 breast carcinoma (CRL-12584, RRID:CVCL_0031), MDA-MB-231 breast carcinoma (CRL-12532, RRID:CVCL_0062), NCI-H1876 small cell lung carcinoma (CRL-5902, RRID:CVCL_1503), NCI-H510A small cell lung carcinoma (HTB-184, RRID:CVCL_1565), NCI-H1417 (CRL-5869, RRID:CVCL_1469), and NCI-H196 small cell lung carcinoma (CRL-5823, RRID:CVCL_1509). Dr. Peter Houghton (Greehey Children's Cancer Research Institute, University of Texas Health Science Center, San Antonio, TX) provided Rh-18 rhabdomyosarcoma (RRID:CVCL_1659). Pooled donor human umbilical vein endothelial cells (HUVEC, Lonza, cat. CC-2519) and human mesenchymal stem cells (hMSC, Lonza, cat. PT-2501) were purchased from Lonza (Walkersville, MD).
Cell Culture. […]

Turning to `C=CC(=O)N1CCN(c2nc(=O)n(-c3c(C)ccnc3C(C)C)c3nc(-c4c(O)cccc4F)c(F)cc23)C(C)C1` (stereo unspecified), the viability, T/C (in general, the result in the treated group divided by that in the control group, in per cent) runs as follows: (compound 0.0316 µM) 92.7% and 99.7% and 107%; (compound 0.1 µM) 90.9% and 101% and 93.8%; (compound 0.316 µM) 85.3% and 99.8% and 90.6%; (compound 1 µM) 91.7% and 121% and 102%; (compound 3.16 µM) 81.7% and 103% and 114%; (compound 10 µM) 75% and 76.2% and 103%. For the same molecule, the half-inhibitory concentration (IC50) (commonly the midpoint of a concentration-inhibition curve) (curve of compound) is greater than 10 µM.

For the molecule `O=C(c1cc(Cc2n[nH]c(=O)c3ccccc23)ccc1F)N1CCN(C(=O)C2CC2)CC1`, the viability, T/C runs as follows: (compound 0.0316 µM) 104% and 99% and 94.7%; (compound 0.1 µM) 90.7% and 89.4% and 111%; (compound 0.316 µM) 95.8% and 90.3% and 114%; (compound 1 µM) 104% and 121% and 97.4%; (compound 3.16 µM) 81.3% and 87.6% and 46.4%; (compound 10 µM) 71.4% and 72.6% and 15.8%. For the setting “curve of compound”, the 50% inhibitory concentration (IC50) is > 10 µM and 2.91 µM.

For `C=CC(=O)N1CCN(c2nc(=O)n(-c3c(C)ccnc3C(C)C)c3nc(-c4c(O)cccc4F)c(F)cc23)C(C)C1` (stereo unspecified) + CCN1C(C(=O)NC23CCC(C(=O)O)(CC2)CC3)C(c2cccc(Cl)c2F)C2(C(=O)Nc3cc(Cl)ccc32)C12CCCCC2, the IC50 (curve of first compound, second compound 0.00949 µM) is greater than 10 µM; the half-inhibitory concentration (IC50) (curve of first compound, second compound 0.03 µM) was greater than 10 µM; the IC50 (curve of first compound, second compound 0.0949 µM) amounted to 0.585 µM; the half-inhibitory concentration (IC50) (curve of first compound, second compound 0.3 µM) was less than 0.0316 µM; the IC50 (curve of first compound, second compound 0.949 µM) is less than 0.0316 µM; the 50% inhibitory concentration (IC50) (curve of first compound, second compound 3 µM) is less than 0.0316 µM. Besides, the viability, T/C by setting is: (second compound 0.00949 µM, first compound 0.0316 µM) 109%; (second compound 0.00949 µM, first compound 0.1 µM) 104%; (second compound 0.00949 µM, first compound 0.316 µM) 113%; (second compound 0.00949 µM, first compound 1 µM) 107%; (second compound 0.00949 µM, first compound 3.16 µM) 113%; (second compound 0.00949 µM, first compound 10 µM) 91.1%. Moreover, the viability, T/C was 96.1% (second compound 0.03 µM, first compound 0.0316 µM); 93.7% (second compound 0.03 µM, first compound 0.1 µM); 83.3% (second compound 0.03 µM, first compound 0.316 µM); 68.2% (second compound 0.03 µM, first compound 1 µM); 82.9% (second compound 0.03 µM, first compound 3.16 µM); 59.8% (second compound 0.03 µM, first compound 10 µM). Also, the viability, T/C reads like this: (second compound 0.0949 µM, first compound 0.0316 µM) 53.9%; (second compound 0.0949 µM, first compound 0.1 µM) 56.4%; (second compound 0.0949 µM, first compound 0.316 µM) 55.3%; (second compound 0.0949 µM, first compound 1 µM) 42.5%; (second compound 0.0949 µM, first compound 3.16 µM) 45.7%; (second compound 0.0949 µM, first compound 10 µM) 35.5%. Further, the viability, T/C by setting is: (second compound 0.3 µM, first compound 0.0316 µM) 34.8%; (second compound 0.3 µM, first compound 0.1 µM) 33.5%; (second compound 0.3 µM, first compound 0.316 µM) 35.6%; (second compound 0.3 µM, first compound 1 µM) 33%; (second compound 0.3 µM, first compound 3.16 µM) 32%; (second compound 0.3 µM, first compound 10 µM) 32.6%. Further, the viability, T/C runs as follows: (second compound 0.949 µM, first compound 0.0316 µM) 24.5%; (second compound 0.949 µM, first compound 0.1 µM) 23.1%; (second compound 0.949 µM, first compound 0.316 µM) 20.7%; (second compound 0.949 µM, first compound 1 µM) 25.2%; (second compound 0.949 µM, first compound 3.16 µM) 32.1%; (second compound 0.949 µM, first compound 10 µM) 21.4%. The viability, T/C is 16.6% (second compound 3 µM, first compound 0.0316 µM); 17.1% (second compound 3 µM, first compound 0.1 µM); 19.1% (second compound 3 µM, first compound 0.316 µM); 18.3% (second compound 3 µM, first compound 1 µM); 22.1% (second compound 3 µM, first compound 3.16 µM); 24.2% (second compound 3 µM, first compound 10 µM).
